Data on 17 compounds can be found in patent US8563588B2, “Imidazolone derivatives, method for the preparation thereof and biological applications” (Universite de Rennes 1, priority 2007, dated 2013).

The experiment has as its target Rat recombinant DYRK1A (Rattus norvegicus, UniProt Q63470). Briefly: Assaying of the kinase activity of DYRK1A (33P-ATP, myelin basic protein, P81 filter).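 Further: GST fusion rat DYRK1A made in E. coli, scintillation counting of label bound to substrate, activity as percent of the inhibitor-free maximum after blank subtraction.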 It is filed as biochemical. Conditions: 15 μM ATP, 30° C., 30 min; read-out: IC50 DYRK1A.

pIC50: −log10 of the molar value.

The pIC50 is −log10 of the IC50, conventionally taken in molar units.

Description: Rat recombinant DYRK1A was expressed in E. coli as a GST fusion protein. It was purified by affinity chromatography on beads of immobilized glutathione (elution with free glutathione). […] After incubation at 30° C. for 30 min, 25-μL aliquots of supernatant were spotted onto Whatman P81 phosphocellulose filters and the filters were washed five times in a solution of phosphoric acid (10 ml/L water). The radioactivity incorporated into the substrate, retained on the moist filters, was then counted in the presence of ACS scintillation fluid (Amersham). The control values were subtracted and the activities were expressed as % of the maximum value, i.e. the value obtained in the absence of inhibitors. The IC50 values were calculated from dose-response curves and are given in μM.

As for `CCSC1=N/C(=C\c2ccc(O)c(OC)c2)C(=O)N1C` [ST170], the pIC50 is < 5.00. With `O=C1NC(=S)N/C1=C\c1c[nH]c2ccccc12` [ST195], the pIC50 is < 5.00. As for `CN1C(=O)C(=Cc2c[nH]c3ccccc23)NC1=S` [ST197], the pIC50 is < 5.00.

With `COc1cc(/C=C2\NC(=S)NC2=O)ccc1O` [ST202], the pIC50 was < 5.00.

In the case of `N#CCSC1=N/C(=C\c2ccc3c(c2)OCO3)C(=O)N1` [ST209], the pIC50 is 6.77. As for `CN1C(=O)/C(=C/c2ccc3c(c2)OCO3)N=C1SCC#N` [ST211], the pIC50 is 6.33. The value for `CN1C(=O)/C(=C/c2ccc3c(c2)OCO3)NC1=S` [ST223] was < 5.00. In the case of `O=C1NC(=S)N/C1=C\c1ccc(O)c(O)c1` [ST227], the pIC50 is 4.18. The value for `COc1cc(/C=C2\NC(=S)NC2=O)cc(Br)c1O` [ST229] was 4.19; that for `CCSC1=N/C(=C\c2ccc(O)c(OC)c2)C(=O)N1` [ST240] was 5.59; that for `O=C1NC(=S)N/C1=C\c1cc(Br)c2c(c1)OCO2` [ST279] was < 5.00.

Regarding `CCSC1=N/C(=C\c2cc(Br)c3c(c2)OCO3)C(=O)N1` [ST280], the pIC50 was < 5.00.

Consider `CCSC1=N/C(=C\c2ccc(O)c(O)c2)C(=O)N1` [ST286], for which the negative logarithm of the IC50 (pIC50) was < 5.00. For `COc1cc(/C=C2\N=C(N)NC2=O)ccc1O` [ST325], the pIC50 was 6.77.

Take `NC1=N/C(=C\c2ccc(O)c(O)c2)C(=O)N1` [ST326]: the pIC50 was < 5.00. As for `CN1C(=O)/C(=C/c2cc(Br)c3c(c2)OCO3)NC1=S` [ST341], the pIC50 was < 5.00.

On to `CCSC1=N/C(=C\c2cc(Br)c3c(c2)OCO3)C(=O)N1C` [ST342], for which the pIC50 was < 5.00.
